Assays:
[1] = Phase I clinical trial: safety and tolerability; format: in vivo
Text: To explore the safety and tolerability of multiple doses of Compound A in humans, and to determine the maximum tolerated dose (MTD) and the recommended Phase II dose (RP2D).
This study is a single-arm, open-label, dose-escalation and dose-expansion Phase I clinical trial. The trial plans to enroll patients with chronic myeloid leukemia (CML) who have developed resistance or intolerance after prior treatment with BCR-ABL1 tyrosine kinase inhibitor(s) (TKIs).
(§1) The dose-escalation phase of this trial consists of about 8 dose groups, with oral administration under fasting conditions. Subjects in all dose groups will receive a single dose on Day 1 (D1), followed by pharmacokinetic (PK) and tolerability observations. If no drug-related adverse events of Grade 3 or higher occur during the single-dose period, the subject will enter the multiple-dose period (i.e., the treatment period) after 3-5 days (for the first dose group, the multiple-dose period begins 5 days after the first dose [i.e., starting on Day 6]; for subsequent dose groups, the interval will be determined based on available tolerability and PK data). After entering the multiple-dose period, subjects in the first dose group will initially receive twice-daily (BID) dosing (if PK data from the single-dose period are available, the dosing frequency during the multiple-dose period may be adjusted based on the PK data). The dosing frequency for subjects in subsequent dose groups after entering the multiple-dose period will be determined based on available PK and tolerability data. Throughout the trial, dosing frequency for all subjects may be adjusted based on continuously updated safety and PK data.
(§2) A continuous reassessment method (CRM) based on the principle of the escalation with overdose control (EWOC) design will be used to recommend the next specific dose for each dose escalation, thereby completing dose escalation and determining the maximum tolerated dose (MTD). If both the investigator and sponsor believe that higher dose groups may offer better efficacy and manageable safety, the EWOC-based CRM method may be used to explore higher doses. All enrolled subjects will receive long-term treatment with the test drug and undergo evaluations for safety, tolerability, and preliminary efficacy.

[2] = tested on: chronic phase (CP) chronic myeloid leukemia (CML); assay: Phase I dose escalation and dose expansion clinical trial: efficacy in CML-CP subjects; format: in vivo, humans
Text: This study is a single-arm, open-label, dose-escalation and dose-expansion Phase I clinical trial.
as §1, with “If no drug-related adverse events of Grade 3 or higher occur during the single-dose period, the subject will enter the multiple-dose period (i.e., the treatment period) after 3-5 days (for the first dose group, the multiple-dose period begins 5 days after the first dose [i.e., starting on Day 6]; for subsequent dose groups, the interval will be determined based on available tolerability and PK data).” left out
as §2
After obtaining certain research data from the dose-escalation phase, the investigator may comprehensively consider safety, efficacy, and other information to decide whether to enroll additional subjects at the MTD and/or lower dose levels to determine the recommended Phase II dose (RP2D). Two to four suitable dosing regimens will be selected for expansion in the target population (including subjects enrolled at the target dose levels during the escalation phase).
A total of 8 dose groups were established: 10 mg bid, 20 mg bid, 40 mg bid, 80 mg bid, 40 mg qd, 80 mg qd, 160 mg qd, and 240 mg qd.
The dose expansion phase was conducted in the following 3 cohorts: • Cohort 1: Subjects with chronic phase (CP) chronic myeloid leukemia (CML) who had previously received at least ≥2 different TKIs and were T315I-negative. A total of 3 dose groups were established: 40 mg qd, 80 mg qd, and 240 mg qd; • Cohort 2: Subjects with chronic phase (CP) chronic myeloid leukemia (CML) who have previously received ≥1 TKI and were T315I-positive. A total of 2 dose groups were established: 40 mg qd and 240 mg qd; • Cohort 3: Subjects with accelerated phase (AP) chronic myeloid leukemia (CML) who have previously received ≥1 TKI, regardless of T315I positivity. A total of 1 dose group was established: 240 mg qd.

[3] = CML subjects, safety data cutoff June 2, 2023
[4] = CML-CP subjects previously treated with ponatinib, olverembatinib, asciminib, and/or HS-10382, as of June 2, 2024
[5] = CML-CP subjects, all doses, 58 evaluable, as of August 24, 2023
[6] = CML-CP subjects, all doses, as of August 24, 2023
[7] = CML-CP subjects, as of June 2, 2024
[8] = CML-CP, 10 mg BID, 2 evaluable subjects, as of August 24, 2023
[9] = CML-CP, 20 mg BID, 3 evaluable subjects, as of August 24, 2023
[10] = CML-CP, 40 mg BID, 1 evaluable subject, as of August 24, 2023
[11] = CML-CP, 40 mg QD, 15 evaluable subjects, as of August 24, 2023
[12] = CML-CP, 40 mg/day Total, 18 evaluable subjects, as of August 24, 2023
[13] = CML-CP, 80 mg BID, 3 evaluable subjects, as of August 24, 2023
[14] = CML-CP, 80 mg QD, 2 evaluable subjects, as of August 24, 2023
[15] = CML-CP, 80 mg/day Total, 3 evaluable subjects, as of August 24, 2023
[16] = CML-CP, 160 mg QD, 1 evaluable subject, as of August 24, 2023
[17] = CML-CP, 160 mg/day Total, 4 evaluable subjects, as of August 24, 2023
[18] = CML-CP, 240 mg QD, 31 evaluable subjects, as of August 24, 2023
[19] = CML-CP, Total, all dose groups, 58 evaluable subjects, as of August 24, 2023

With `O=C(Nc1ccc(OC(F)(F)Cl)cc1)c1cnc(N2CC[C@@H](F)C2)c(-c2cnccn2)c1` [Compound A, (R)-N-(4-(chlorodifluoromethoxy)phenyl)-6-(3-fluoropyrrolidin-1-yl)-5-(pyrazin-2-yl)nicotinamide] as the molecule, how does the “dose-dependent increase in the frequency of adverse events” value ([1]; CML subjects, 10 mg BID to 240 mg QD, safety data cutoff June 2, 2023) read?
Its value is “no observed dose-dependent increase”.

And the “Grade ≥3 hematological adverse events associated with the test drug” value [1, 3]?
The value was “mostly manageable with treatment interruption”.

And the “non-hematological toxicity compared to ATP-competitive TKIs” value [1, 3]?
The value was “significant improvement in non-hematological toxicity”.

And the “pigmentation or severe arterial occlusive events and venous thromboembolic events” value [1, 3]?
The value was “no reported”.

And the “safety and tolerability profile” value [1, 3]?
The value was “favorable safety and tolerability profile”.

What about the tolerability ([1]; CML-CP and CML-AP patients, extended follow-up, as of June 2, 2024) of the same molecule?
The tolerability was “good tolerability”.

What about the “18-month cumulative incidence of CCyR” value [2, 4] of the same molecule?
The value was 17%.

What about the “18-month cumulative incidence of MCyR” value [2, 4] of the same molecule?
The value was 32%.

And the CHR ([2]; CML-CP subjects, all doses, 35 evaluable, as of August 24, 2023)?
Its CHR is 91.4%.

And the CCyR [2, 5]?
Its CCyR is 34.5%.

What about the MCyR [2, 5] of the same molecule?
Its MCyR is 39.7%.

And the MMR ([2]; CML-CP subjects, all doses, 62 evaluable, as of August 24, 2023)?
Its MMR is 16.1%.

And the “median time to CCyR” value [2, 6]?
Its value is 2.81 (2.76, 3.30) months.

What about the “median time to MCyR” value [2, 6] of the same molecule?
Its value is 2.83 (2.76, 3.68) months.

What about the “median time to MMR” value [2, 6] of the same molecule?
Its value is 2.81 (2.76, 5.49) months.

And the “CHR within 3 treatment cycles” value ([2]; CML-CP subjects, 49 evaluable, as of June 2, 2024)?
Its value is 82%.

What about the “18-month cumulative incidence rate for CCyR” value [2, 7] of the same molecule?
Its value is 40%.

What about the “18-month cumulative incidence rate for MCyR” value [2, 7] of the same molecule?
The value was 52%.

What about the “18-month cumulative incidence rate for MMR” value [2, 7] of the same molecule?
Its value is 26%.

What about the CHR ([2]; CML-CP, 10 mg BID, 0 evaluable subjects, as of August 24, 2023) of the same molecule?
Its CHR is 0 n (%).

And the CCyR [2, 8]?
The CCyR was 1 (50.0) n (%).

And the MCyR [2, 8]?
Its MCyR is 2 (100) n (%).

And the MMR [2, 8]?
The MMR was 1 (50.0) n (%).

What about the CHR ([2]; CML-CP, 20 mg BID, 2 evaluable subjects, as of August 24, 2023) of the same molecule?
Its CHR is 2 (100) n (%).

What about the CCyR [2, 9] of the same molecule?
The CCyR was 2 (66.7) n (%).

What about the MCyR [2, 9] of the same molecule?
The MCyR was 2 (66.7) n (%).

What about the MMR [2, 9] of the same molecule?
Its MMR is 0 n (%).

And the CCyR [2, 10]?
Its CCyR is 0 n (%).

And the CHR [2, 10]?
Its CHR is 1 (100) n (%).

What about the MCyR [2, 10] of the same molecule?
The MCyR was 0 n (%).

And the MMR [2, 10]?
The MMR was 0 n (%).

And the CHR ([2]; CML-CP, 40 mg QD, 7 evaluable subjects, as of August 24, 2023)?
Its CHR is 6 (85.7) n (%).

What about the CCyR [2, 11] of the same molecule?
The CCyR was 5 (33.3) n (%).

What about the MCyR [2, 11] of the same molecule?
The MCyR was 5 (33.3) n (%).

And the MMR ([2]; CML-CP, 40 mg QD, 17 evaluable subjects, as of August 24, 2023)?
Its MMR is 3 (17.6) n (%).

What about the CHR ([2]; CML-CP, 40 mg/day Total, 9 evaluable subjects, as of August 24, 2023) of the same molecule?
The CHR was 8 (88.9) n (%).

What about the CCyR [2, 12] of the same molecule?
Its CCyR is 7 (38.9) n (%).

What about the MCyR [2, 12] of the same molecule?
Its MCyR is 7 (38.9) n (%).

And the MMR ([2]; CML-CP, 40 mg/day Total, 20 evaluable subjects, as of August 24, 2023)?
The MMR was 3 (15.0) n (%).

And the CHR ([2]; CML-CP, 80 mg BID, 2 evaluable subjects, as of August 24, 2023)?
The CHR was 2 (100) n (%).

What about the CCyR [2, 13] of the same molecule?
The CCyR was 1 (33.3) n (%).

What about the MCyR [2, 13] of the same molecule?
The MCyR was 1 (33.3) n (%).

What about the MMR [2, 13] of the same molecule?
Its MMR is 1 (33.3) n (%).

What about the CCyR [2, 14] of the same molecule?
The CCyR was 1 (50.0) n (%).

And the MCyR [2, 14]?
The MCyR was 1 (50.0) n (%).

And the MMR [2, 14]?
The MMR was 0 n (%).

What about the CHR ([2]; CML-CP, 80 mg QD, 3 evaluable subjects, as of August 24, 2023) of the same molecule?
The CHR was 3 (100) n (%).

What about the CCyR [2, 15] of the same molecule?
Its CCyR is 1 (33.3) n (%).

And the MCyR [2, 15]?
The MCyR was 1 (33.3) n (%).

What about the MMR [2, 15] of the same molecule?
Its MMR is 0 n (%).

What about the CHR ([2]; CML-CP, 80 mg/day Total, 4 evaluable subjects, as of August 24, 2023) of the same molecule?
Its CHR is 4 (100) n (%).

What about the CCyR [2, 16] of the same molecule?
The CCyR was 1 (100) n (%).

And the CHR [2, 16]?
The CHR was 1 (100) n (%).

What about the MCyR [2, 16] of the same molecule?
The MCyR was 1 (100) n (%).

And the MMR [2, 16]?
The MMR was 1 (100) n (%).

What about the CHR ([2]; CML-CP, 160 mg/day Total, 3 evaluable subjects, as of August 24, 2023) of the same molecule?
The CHR was 3 (100) n (%).

What about the CCyR [2, 17] of the same molecule?
The CCyR was 2 (50.0) n (%).

And the MCyR [2, 17]?
Its MCyR is 2 (50.0) n (%).

And the MMR [2, 17]?
Its MMR is 2 (50.0) n (%).

And the CHR ([2]; CML-CP, 240 mg QD, 19 evaluable subjects, as of August 24, 2023)?
Its CHR is 17 (89.5) n (%).

What about the CCyR [2, 18] of the same molecule?
Its CCyR is 9 (29.0) n (%).

And the MCyR [2, 18]?
The MCyR was 11 (35.5) n (%).

What about the MMR ([2]; CML-CP, 240 mg QD, 33 evaluable subjects, as of August 24, 2023) of the same molecule?
The MMR was 4 (12.1) n (%).

And the CHR ([2]; CML-CP, Total, all dose groups, 35 evaluable subjects, as of August 24, 2023)?
The CHR was 32 (91.4) n (%).

What about the CCyR [2, 19] of the same molecule?
Its CCyR is 20 (34.5) n (%).

What about the MCyR [2, 19] of the same molecule?
The MCyR was 23 (39.7) n (%).

What about the MMR ([2]; CML-CP, Total, all dose groups, 62 evaluable subjects, as of August 24, 2023) of the same molecule?
The MMR was 10 (16.1) n (%).

— EP4803080A1, “METHOD FOR TREATING LEUKEMIA” (Shenzhen TargetRx Co., Ltd., priority 2023, dated 2025)
